In patent US20240122922A1, “Methods Of Treating Cancer With Transmembrane Protein 16F (TMEM16F) Inhibitors” (Institute For Cancer Research d/b/a The Research Institute …, priority 2022, published 2024):
“Also recorded” adds a separate entry of the source.

Assays:
[1] = system: KPCN349 cells co-cultured with CAFs; test: Trogocytosis assay in vitro by flow cytometry (CAF membrane uptake by PDAC cells); type: cell-based, murine; settings: 100 nM, CAFs pre-treated 2 hours and maintained in co-culture, vs vehicle, p<0.05
Protocol: To label cellular membranes, pairs of lipophilic fluorescent dyes were used according to the manufacturer's instructions in the following combinations: 1) adherent CAFs were stained 1 μM PKH67 (Sigma-Aldrich), Panc-1 were stained in suspension with 10 μM CellTracker™ orange CMTMR (Thermo Fisher Scientific); 2) CAFs labeled with 0.5 μM BODIPY-cholesterol (Topfluor Cholesterol, #DO-016545, Avanti Polar Lipids) dissolved in 0.1 mM methyl-b-cyclodextrin (#C4555, Sigma) with 2 μM cholesterol (#C8667, Sigma-Aldrich) in MEM media at 37° C. for 30 minutes in suspension; murine or human (Panc-1) PDAC cells were stained in suspension with CPD670 (#65-0840-85, Thermo Fisher Scientific). After labeling, CAFs were co-incubated for indicated time intervals with PDAC cells in 12-well culture plates at ratio of 2:1 in half DMEM media. Co-cultures of CAFs and PDAC cells for 3 minutes on ice were used as negative controls. In experiments assessing the effect of extracellular calcium on trogocytoisis, cells were co-cultured in Phosphate Buffered Saline (PBS) containing calcium and magnesium (D8662, Sigma-Aldrich) or in PBS without calcium and magnesium (D8537, Sigma-Aldrich). After co-cultures, cells were collected and pelleted by centrifugation (5 minutes, 1500 rpm), resuspended in 10% formalin (Sigma) for 10 minutes at RT, washed and re-suspended in PBS/1% BSA. Trogocytosis was measured as the acquisition of CAF-specific fluorescence in PDAC cells by flow cytometry on MACSQuant® VYB Flow Cytometer (Miltenyi Biotec) or FACScan analyzer (BD Biosciences). Analysis of dual staining was done using FlowJo software (10.8.1, BD Biosciences). Live cells were gated based on FSC/SSC parameters, then single cells were gated based on SSC-A/SSC-H.
For interference with trogocytosis, CAFs were pre-treated prior to co-cultures for 2 hours with recombinant label-free 100 nM Annexin-V (#ab157342, Abcam) or 100 nM Zn-DPA (Molecular Targeting Technologies) and subsequently maintained in co-cultures at the same concentrations.

[2] = system: KPC3 syngeneic pancreatic tumor grafts; test: Treatment of orthotopic syngeneic KPC3 pancreatic tumors with oral ANO6 inhibitors; type: in vivo, C57Bl/6J mice; settings: oral gavage 5 days/week for 3 weeks; niclosamide 150 mg/kg, clofazimine 50 mg/kg; vs vehicle, p<0.001
Protocol: (§1) Syngeneic 5×10^5 KPC3 cells were orthotopically injected to the tail of pancreas of anesthetized C57Bl/6J mice. Treatment with ANO6 inhibitors niclosamide or clofazimine commenced on 2 days post-implantation: niclosamide (150 mg/kg of mouse body weight, Cayman #10649), clofazimine (50 mg/kg, MedChem Express), or corn oil (50 mg/kg, Sigma #C8267) as vehicle were given by oral gavages 5 days/week for 3 weeks. Mice were kept under defined-flora pathogen-free conditions. Mice of both genders, equally distributed, were used for the experiments.

DsRed-tagged KPC3 tumors = test: In vivo fluorescent LDL (BODIPY-cholesterol) imaging by multiphoton microscopy; parameters: species or system mice
Protocol: as §1

## [Zn].c1ccc(CNCc2ccccn2)nc1 [Zn-DPA, zinc-dipicolylamine]
[1]
  uptake of BODIPY-labeled CAF membranes by KPCN349 cells: significantly reduced the uptake
[1]; listed as bis-Zn-dipicolylamine
  uptake of BODIPY-labeled CAF membranes by KPCN349 cells: antagonizes uptake

## CC(C)/N=c1\cc2n(-c3ccc(Cl)cc3)c3ccccc3nc-2cc1Nc1ccc(Cl)cc1 [clofazimine]
[2]
  weights of orthotopic syngeneic pancreatic tumors: significant reduction of tumor weights

## O=C(Nc1ccc([N+](=O)[O-])cc1Cl)c1cc(Cl)ccc1O [niclosamide]
DsRed-tagged KPC3 tumors; 19 hours post injection, niclosamide vs vehicle
  accumulation of intratumoral vesicles containing BODIPY-cholesterol: dramatically reduced
DsRed-tagged KPC3 tumors; niclosamide 150 mg/kg/day, 10, 16 and 19 hours post injection, vehicle tumors showed 6-fold enrichment at 16 hours
  accumulation of BODIPY-cholesterol from intravenously administered LDL in DsRed-tagged KPC3 cancer cells (intratumoral to peri-tumoral fluorescence): suppressed accumulation
[2]
  weights of orthotopic syngeneic pancreatic tumors: significant reduction of tumor weights

B1: annexin V: recombinant label-free Annexin-V (#ab157342, Abcam) masking cell surface phosphatidylserine (protein, UniProt P08758 2-320, looked up)
Annexin A5: AQVLRGTVTDFPGFDERADAETLRKAMKGLGTDEESILTLLTSRSNAQRQEISAAFKTLFGRDLLDDLKSELTGKFEKLIVALMKPSRLYDAYELKHALKGAGTNEKVLTEIIASRTPEELRAIKQVYEEEYGSSLEDDVVGDTSGYYQRMLVVLLQANRDPDAGIDEAQVEQDAQALFQAGELKWGTDEEKFITIFGTRSVSHLRKVFDKYMTISGFQIEETIDRETSGNLEQLLLAVVKSIRSIPAYLAETLYYAMKGAGTDDHTLIRVMVSRSEIDLFNIRKEFRKNFATSLYSMIKGDTSGDYKKALLLLCGEDD
[1]
  uptake of BODIPY-labeled CAF membranes by KPCN349 cells: significantly reduced the uptake; also recorded: antagonizes uptake
